Data taken from ChEMBL document CHEMBL1201862, “PubChem BioAssay data set” (2004).
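Five concentrations, 48 hours, 96-well plates. GI50 marks 50% less growth.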 Active and inactive are the calls of the source. Rule as the data show it: active = GI50 up to about 1.1 µM and inactive = higher.

Columns and labels:
Assay in all cases: NCI anticancer screen, dose series, 48 h
NCI-H23 = test system: NCI-H23
A549 = test system: A549
RXF 393 = test system: RXF 393
SK-MEL-28 = test system: SK-MEL-28
HCT-116 = test system: HCT-116
MDA-MB-435 = test system: MDA-MB-435
NCI/ADR-RES = test system: NCI/ADR-RES
OVCAR-5 = test system: OVCAR-5
SF-539 = test system: SF-539
786-0 = test system: 786-0
SF-268 = test system: SF-268
IGROV-1 = test system: IGROV-1
Malme-3M = test system: Malme-3M
NCI-H226 = test system: NCI-H226
T47D = test system: T47D
A498 = test system: A498
CAKI-1 = test system: CAKI-1
EKVX = test system: EKVX
SNB-19 = test system: SNB-19
K562 = test system: K562

Structure (SMILES) | GI50 (NCI-H23) | GI50 (A549) | GI50 (RXF 393) | GI50 (SK-MEL-28) | GI50 (HCT-116) | GI50 (MDA-MB-435) | GI50 (NCI/ADR-RES) | GI50 (OVCAR-5) | GI50 (SF-539) | GI50 (786-0) | GI50 (SF-268) | GI50 (IGROV-1) | GI50 (Malme-3M) | GI50 (NCI-H226) | GI50 (T47D) | GI50 (A498) | GI50 (CAKI-1) | GI50 (EKVX) | GI50 (SNB-19) | GI50 (K562)
CCOc1ccccc1/N=N/C1C(=O)N(C(=O)CC(=O)Nc2ccccc2C)N=C1C (stereo not drawn) | 59.7 µM (inactive) | 89.7 µM (inactive) | 25.4 µM (inactive) | > 100 µM (inactive) | 44.4 µM (inactive) | > 100 µM (inactive) | 54.6 µM (inactive) | > 100 µM (inactive) | 56 µM (inactive) | 46.9 µM (inactive) | 19.6 µM (inactive) | 45 µM (inactive) | > 100 µM (inactive) | > 100 µM (inactive) | 51.9 µM (inactive) | 29.2 µM (inactive) | > 100 µM (inactive) | 0.984 µM (active) |  | 
N=C(N)Nc1ccc(CC(N)C(=O)NCC(=O)C(CC(=O)O)c2ncc(NC(=O)C(F)(F)F)o2)cc1 (stereo not drawn) | > 25 µM (inactive) | > 25 µM (inactive) | > 25 µM (inactive) | > 25 µM (inactive) | > 25 µM (inactive) | > 25 µM (inactive) | > 25 µM (inactive) | > 25 µM (inactive) | > 25 µM (inactive) | > 25 µM (inactive) | > 25 µM (inactive) | > 25 µM (inactive) | > 25 µM (inactive) | > 25 µM (inactive) | > 25 µM (inactive) | > 25 µM (inactive) | > 25 µM (inactive) | > 25 µM (inactive) |  | 
CCOC(=O)/C=C(\C(=O)OCC)n1cc(Cl)c(=O)n(CC(=O)OCC)c1=O | 14.7 µM (inactive) | 19.9 µM (inactive) | 1.69 µM (inactive) | 16.7 µM (inactive) | 2.19 µM (inactive) | 16.9 µM (inactive) | 27.6 µM (inactive) | 18.1 µM (inactive) | 14 µM (inactive) | 1.73 µM (inactive) | 17.7 µM (inactive) | 6.93 µM (inactive) | 1.57 µM (inactive) | 16.4 µM (inactive) | 1.66 µM (inactive) | 19.2 µM (inactive) | 2.25 µM (inactive) | 14.3 µM (inactive) | 18.8 µM (inactive) | 
O=C(NC1(C(=O)NNc2nnc(-c3ccccc3)c(-c3ccccc3)n2)C(c2ccccc2)C(c2ccccc2)=NN1c1ccccc1)c1ccccc1 (stereo not drawn) | > 100 µM (inactive) | > 100 µM (inactive) | 22.6 µM (inactive) |  | > 100 µM (inactive) | > 100 µM (inactive) | > 100 µM (inactive) | > 100 µM (inactive) | > 100 µM (inactive) | > 100 µM (inactive) | > 100 µM (inactive) |  | 64.1 µM (inactive) | > 100 µM (inactive) | > 100 µM (inactive) | > 100 µM (inactive) | > 100 µM (inactive) | > 100 µM (inactive) | > 100 µM (inactive) | 
Nc1nc(Nc2ccc(Cl)cc2)sc1C(=O)c1cc2ccccc2oc1=O | 2.93 µM (inactive) | 98.9 µM (inactive) | 82.6 µM (inactive) | 46.5 µM (inactive) | 23.1 µM (inactive) | 23.7 µM (inactive) | 38.5 µM (inactive) | > 100 µM (inactive) | 71.6 µM (inactive) | 19.5 µM (inactive) | 18.3 µM (inactive) | 56.6 µM (inactive) | 19.1 µM (inactive) | > 100 µM (inactive) | 27.7 µM (inactive) | 19.2 µM (inactive) |  |  | > 100 µM (inactive) | 33.8 µM (inactive)
c1ccc(NC2(c3nnnn3C3CCCCC3)CCNCC2)cc1 | 23.8 µM (inactive) | 32.4 µM (inactive) | > 10 µM (inactive) | 17.9 µM (inactive) | 15.2 µM (inactive) | 19.4 µM (inactive) | 66.5 µM (inactive) | 14.9 µM (inactive) | 15.6 µM (inactive) | 15 µM (inactive) | 39.6 µM (inactive) | 32.7 µM (inactive) | 17.1 µM (inactive) | 17.9 µM (inactive) | 23.1 µM (inactive) | 18 µM (inactive) |  | 20.7 µM (inactive) | 17.5 µM (inactive) | 
